From US20260248774A1, “INHIBITORS OF BACTERIAL TYPE III SECRETION SYSTEM” (MICROBIOTIX, INC., priority 2022, published 2026)

Key:
[1] = system: P. aeruginosa T3SS-mediated secretion of ExoS-β-lactamase fusion protein; experiment: Effector-β-lactamase (ExoS-βLA) reporter assay of T3SS-mediated secretion; type: cell-based, Pseudomonas aeruginosa; settings: read-out: ExoS-BLA IC50; Table 1
From the text: Effector-β-Lactamase (βLA) Reporter Assay of T3SS-Mediated Secretion with an Absorbency Signal.
A gene encoding the exoS promoter/regulatory region and an ExoS-β-lactamase (βLA) fusion protein (comprised of the full length P. aeruginosa T3SS effector ExoS fused in reading frame to the TEM-1 β-lactamase gene lacking secretion signal codons) was constructed by splicing by overlap extension PCR (SOE-PCR) (Choi and Schweizer, 2005, BMC Microbiol., 5:30), sequence confirmed, cloned into miniCTX and introduced into P. aeruginosa strain PAO1 to generate strains MDM1746 and MDM1838 as previously described for strain MDM1710 (Bowlin et al., 2014, Antimicrob Agents Chemother., 58:2211-2220). Secretion of ExoS-β-lactamase fusion protein following EGTA addition to induce the T3SS operons was detected by measuring the hydrolysis of the chromogenic β-lactamase substrate nitrocefin in clear 96-well microplates in a modification of a previously described assay (Lee, et al., 2007, Infect. Immun., 75:1089-98). Cells of strain MDM1746, or negative control MDM1838 (which fails to carry out T3SS secretion due to ΔpscF), were sub-cultured in the morning from overnight growths in LBG into 0.1 ml of LBGE with or without test compounds and grown for 150 min. Nitrocefin (100 μg/mL final) was added, and A490 measurements taken every minute for 15 min in a Victor^3V 1420 Multilabel HTS Counter (PerkinElmer). Slopes were calculated as a relative measure of the quantity of the effector-βLA fusion protein secreted and were absolutely dependent on induction with EGTA, and the presence of a functional pscF gene in the P. aeruginosa cells. Typical signal: background ratios were 6-10.

[2] = system: T3SS-mediated translocation of ExoU by P. aeruginosa strain MDM1561 (PA99U) into CHO cells; experiment: P. aeruginosa ExoU-dependent CHO cell killing assay for T3SS-mediated translocation; type: cell-based, Pseudomonas aeruginosa; settings: read-out: Translocation EC50; Table 1
From the text: P. aeruginosa ExoU-Dependent CHO Cell Killing.

[3] = target: panel of human cytochrome P450s, receptors, and ion channels (Homo sapiens, UniProt P02708); settings: assayed at 10 μM
panel of human cytochrome P450s, receptors, and ion channels (Homo sapiens, UniProt P02708), sequence (P02708 21-457): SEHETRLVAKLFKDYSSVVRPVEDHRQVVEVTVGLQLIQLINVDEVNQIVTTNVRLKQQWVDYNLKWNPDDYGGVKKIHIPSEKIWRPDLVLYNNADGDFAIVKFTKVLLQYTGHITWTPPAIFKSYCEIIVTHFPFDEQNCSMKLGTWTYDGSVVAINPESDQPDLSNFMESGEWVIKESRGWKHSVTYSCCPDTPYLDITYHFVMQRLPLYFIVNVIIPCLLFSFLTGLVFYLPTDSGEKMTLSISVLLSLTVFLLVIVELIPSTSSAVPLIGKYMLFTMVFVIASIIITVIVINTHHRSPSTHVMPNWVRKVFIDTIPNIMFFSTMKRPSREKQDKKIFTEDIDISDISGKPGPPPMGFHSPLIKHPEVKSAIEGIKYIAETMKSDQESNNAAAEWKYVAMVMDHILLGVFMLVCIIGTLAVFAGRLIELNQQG

[4] = target: panel of human cytochrome P450s, receptors, and ion channels (Homo sapiens, UniProt P07550); settings: assayed at 10 μM
panel of human cytochrome P450s, receptors, and ion channels (Homo sapiens, UniProt P07550), sequence (P07550 whole entry): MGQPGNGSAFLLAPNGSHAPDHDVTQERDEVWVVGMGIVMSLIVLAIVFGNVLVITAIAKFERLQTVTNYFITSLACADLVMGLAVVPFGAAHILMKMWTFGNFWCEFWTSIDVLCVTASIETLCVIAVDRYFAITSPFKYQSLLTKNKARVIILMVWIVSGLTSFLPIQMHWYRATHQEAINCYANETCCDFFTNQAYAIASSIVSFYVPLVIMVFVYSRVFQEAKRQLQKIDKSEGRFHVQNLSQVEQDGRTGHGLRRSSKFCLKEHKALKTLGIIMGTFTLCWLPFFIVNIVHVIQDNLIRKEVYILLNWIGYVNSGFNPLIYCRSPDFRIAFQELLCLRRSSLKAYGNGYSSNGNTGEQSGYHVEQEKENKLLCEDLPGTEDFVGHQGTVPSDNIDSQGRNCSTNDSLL

[5] = target: panel of human cytochrome P450s, receptors, and ion channels (Homo sapiens, UniProt P08172); settings: assayed at 10 μM
[6] = target: panel of human cytochrome P450s, receptors, and ion channels (Homo sapiens, UniProt P08588); settings: assayed at 10 μM
panel of human cytochrome P450s, receptors, and ion channels (Homo sapiens, UniProt P08588), sequence (P08588 whole entry): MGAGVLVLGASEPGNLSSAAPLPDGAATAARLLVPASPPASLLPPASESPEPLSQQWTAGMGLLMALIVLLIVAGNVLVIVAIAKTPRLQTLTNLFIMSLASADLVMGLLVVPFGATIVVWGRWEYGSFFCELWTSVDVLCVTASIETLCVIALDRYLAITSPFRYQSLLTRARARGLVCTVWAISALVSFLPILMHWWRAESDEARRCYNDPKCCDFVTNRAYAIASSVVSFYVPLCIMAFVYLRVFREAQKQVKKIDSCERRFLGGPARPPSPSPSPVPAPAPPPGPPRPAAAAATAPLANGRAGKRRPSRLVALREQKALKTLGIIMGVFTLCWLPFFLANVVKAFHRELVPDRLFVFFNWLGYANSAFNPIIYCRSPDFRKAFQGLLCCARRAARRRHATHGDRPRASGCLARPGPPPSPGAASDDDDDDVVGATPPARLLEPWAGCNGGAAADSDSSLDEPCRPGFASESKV

[7] = target: panel of human cytochrome P450s, receptors, and ion channels (Homo sapiens, UniProt P08913); settings: assayed at 10 μM
panel of human cytochrome P450s, receptors, and ion channels (Homo sapiens, UniProt P08913), sequence (P08913 whole entry): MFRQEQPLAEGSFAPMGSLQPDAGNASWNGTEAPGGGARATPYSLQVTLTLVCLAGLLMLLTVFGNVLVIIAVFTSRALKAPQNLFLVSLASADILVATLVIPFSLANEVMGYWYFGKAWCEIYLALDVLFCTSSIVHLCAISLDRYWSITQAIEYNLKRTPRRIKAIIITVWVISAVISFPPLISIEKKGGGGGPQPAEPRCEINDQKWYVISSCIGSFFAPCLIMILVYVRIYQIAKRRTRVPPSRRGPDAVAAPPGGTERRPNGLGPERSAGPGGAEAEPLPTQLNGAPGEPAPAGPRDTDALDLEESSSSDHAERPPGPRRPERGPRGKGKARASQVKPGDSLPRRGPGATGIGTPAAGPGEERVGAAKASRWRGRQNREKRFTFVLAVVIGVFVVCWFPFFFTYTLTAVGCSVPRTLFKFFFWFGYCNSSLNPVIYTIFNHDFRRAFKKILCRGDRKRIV

[8] = target: panel of human cytochrome P450s, receptors, and ion channels (Homo sapiens, UniProt P14416); settings: assayed at 10 μM
[9] = target: panel of human cytochrome P450s, receptors, and ion channels (Homo sapiens, UniProt P20309); settings: assayed at 10 μM
panel of human cytochrome P450s, receptors, and ion channels (Homo sapiens, UniProt P20309), sequence (P20309 whole entry): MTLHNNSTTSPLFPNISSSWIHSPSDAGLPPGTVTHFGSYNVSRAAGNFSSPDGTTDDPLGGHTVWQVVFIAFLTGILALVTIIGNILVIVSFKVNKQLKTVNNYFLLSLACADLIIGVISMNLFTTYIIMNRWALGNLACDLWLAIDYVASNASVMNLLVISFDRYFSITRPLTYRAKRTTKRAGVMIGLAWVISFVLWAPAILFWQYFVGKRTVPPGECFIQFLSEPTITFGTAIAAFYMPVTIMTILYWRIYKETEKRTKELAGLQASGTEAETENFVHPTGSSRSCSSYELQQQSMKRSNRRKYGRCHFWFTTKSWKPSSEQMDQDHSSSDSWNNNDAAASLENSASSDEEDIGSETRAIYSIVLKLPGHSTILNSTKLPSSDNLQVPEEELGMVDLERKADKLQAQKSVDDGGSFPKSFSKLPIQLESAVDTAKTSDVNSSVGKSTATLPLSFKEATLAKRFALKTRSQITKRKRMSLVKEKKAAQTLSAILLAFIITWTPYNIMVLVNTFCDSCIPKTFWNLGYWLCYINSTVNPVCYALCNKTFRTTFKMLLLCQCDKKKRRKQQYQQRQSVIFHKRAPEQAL

[10] = target: panel of human cytochrome P450s, receptors, and ion channels (Homo sapiens, UniProt P21554); settings: assayed at 10 μM
[11] = target: panel of human cytochrome P450s, receptors, and ion channels (Homo sapiens, UniProt P21728); settings: assayed at 10 μM
panel of human cytochrome P450s, receptors, and ion channels (Homo sapiens, UniProt P21728), sequence (P21728 whole entry): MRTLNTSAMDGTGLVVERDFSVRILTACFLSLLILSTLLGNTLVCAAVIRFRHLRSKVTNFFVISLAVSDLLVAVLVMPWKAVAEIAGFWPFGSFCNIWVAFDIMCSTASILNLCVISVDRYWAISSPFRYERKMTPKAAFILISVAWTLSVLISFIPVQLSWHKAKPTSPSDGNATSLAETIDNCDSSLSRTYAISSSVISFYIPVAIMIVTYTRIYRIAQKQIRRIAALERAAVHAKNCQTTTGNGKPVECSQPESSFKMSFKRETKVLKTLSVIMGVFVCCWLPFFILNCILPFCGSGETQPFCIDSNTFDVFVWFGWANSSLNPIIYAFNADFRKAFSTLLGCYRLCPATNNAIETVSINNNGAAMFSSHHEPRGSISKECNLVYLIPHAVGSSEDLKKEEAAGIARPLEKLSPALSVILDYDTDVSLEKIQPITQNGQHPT

[12] = target: panel of human cytochrome P450s, receptors, and ion channels (Homo sapiens, UniProt P23975); settings: assayed at 10 μM
[13] = target: panel of human cytochrome P450s, receptors, and ion channels (Homo sapiens, UniProt P29274); settings: assayed at 10 μM
panel of human cytochrome P450s, receptors, and ion channels (Homo sapiens, UniProt P29274), sequence (P29274 whole entry): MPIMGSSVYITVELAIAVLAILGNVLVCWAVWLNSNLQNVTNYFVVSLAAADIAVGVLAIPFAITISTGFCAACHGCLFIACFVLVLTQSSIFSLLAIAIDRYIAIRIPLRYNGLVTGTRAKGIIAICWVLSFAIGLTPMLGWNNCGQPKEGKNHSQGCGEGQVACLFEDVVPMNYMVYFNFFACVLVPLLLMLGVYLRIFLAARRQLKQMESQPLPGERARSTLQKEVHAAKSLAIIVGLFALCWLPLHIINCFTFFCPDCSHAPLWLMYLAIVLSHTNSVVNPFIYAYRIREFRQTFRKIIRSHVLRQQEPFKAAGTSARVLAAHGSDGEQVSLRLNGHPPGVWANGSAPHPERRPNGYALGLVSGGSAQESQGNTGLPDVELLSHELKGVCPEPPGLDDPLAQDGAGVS

[14] = target: panel of human cytochrome P450s, receptors, and ion channels (Homo sapiens, UniProt P30542); settings: assayed at 10 μM
panel of human cytochrome P450s, receptors, and ion channels (Homo sapiens, UniProt P30542), sequence (P30542 whole entry): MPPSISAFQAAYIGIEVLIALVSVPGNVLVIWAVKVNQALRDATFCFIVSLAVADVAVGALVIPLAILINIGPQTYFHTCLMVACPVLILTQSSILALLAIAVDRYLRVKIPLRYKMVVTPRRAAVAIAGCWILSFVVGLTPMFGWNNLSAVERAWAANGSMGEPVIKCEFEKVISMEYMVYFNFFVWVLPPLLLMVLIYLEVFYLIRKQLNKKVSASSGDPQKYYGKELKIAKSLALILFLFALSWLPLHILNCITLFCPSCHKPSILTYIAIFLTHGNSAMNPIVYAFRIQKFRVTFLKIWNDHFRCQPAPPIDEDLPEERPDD

[15] = target: panel of human cytochrome P450s, receptors, and ion channels (Homo sapiens, UniProt P35367); settings: assayed at 10 μM
[16] = target: panel of human cytochrome P450s, receptors, and ion channels (Homo sapiens, UniProt P35372); settings: assayed at 10 μM
[17] = target: panel of human cytochrome P450s, receptors, and ion channels (Homo sapiens, UniProt P35408); settings: assayed at 10 μM
[18] = target: panel of human cytochrome P450s, receptors, and ion channels (Homo sapiens, UniProt P41595); settings: assayed at 10 μM
panel of human cytochrome P450s, receptors, and ion channels (Homo sapiens, UniProt P41595), sequence (P41595 whole entry): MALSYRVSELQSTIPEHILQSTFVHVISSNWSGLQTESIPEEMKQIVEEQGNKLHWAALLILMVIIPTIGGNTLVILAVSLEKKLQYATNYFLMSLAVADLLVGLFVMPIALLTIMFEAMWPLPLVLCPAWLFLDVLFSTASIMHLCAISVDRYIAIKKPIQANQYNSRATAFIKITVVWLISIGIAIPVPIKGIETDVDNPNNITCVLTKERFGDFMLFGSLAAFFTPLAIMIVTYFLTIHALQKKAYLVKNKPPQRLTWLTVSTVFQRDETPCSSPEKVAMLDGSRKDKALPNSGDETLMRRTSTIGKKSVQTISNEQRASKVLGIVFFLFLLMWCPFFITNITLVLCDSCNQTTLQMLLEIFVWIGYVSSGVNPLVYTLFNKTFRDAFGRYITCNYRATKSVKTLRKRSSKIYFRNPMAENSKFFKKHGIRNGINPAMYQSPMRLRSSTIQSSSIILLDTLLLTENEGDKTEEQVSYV

[19] = target: panel of human cytochrome P450s, receptors, and ion channels (Homo sapiens, UniProt Q99720); settings: assayed at 10 μM
panel of human cytochrome P450s, receptors, and ion channels (Homo sapiens, UniProt Q99720), sequence (Q99720 whole entry): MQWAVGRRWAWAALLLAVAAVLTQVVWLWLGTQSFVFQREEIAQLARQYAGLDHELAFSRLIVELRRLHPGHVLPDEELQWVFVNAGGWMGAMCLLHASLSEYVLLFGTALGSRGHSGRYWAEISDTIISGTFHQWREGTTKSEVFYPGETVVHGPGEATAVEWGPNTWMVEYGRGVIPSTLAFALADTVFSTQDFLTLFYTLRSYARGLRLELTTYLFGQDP

[20] = target: panel of human cytochrome P450s, receptors, and ion channels (Rattus norvegicus, UniProt P15823); settings: assayed at 10 μM
panel of human cytochrome P450s, receptors, and ion channels (Rattus norvegicus, UniProt P15823), sequence (P15823 whole entry): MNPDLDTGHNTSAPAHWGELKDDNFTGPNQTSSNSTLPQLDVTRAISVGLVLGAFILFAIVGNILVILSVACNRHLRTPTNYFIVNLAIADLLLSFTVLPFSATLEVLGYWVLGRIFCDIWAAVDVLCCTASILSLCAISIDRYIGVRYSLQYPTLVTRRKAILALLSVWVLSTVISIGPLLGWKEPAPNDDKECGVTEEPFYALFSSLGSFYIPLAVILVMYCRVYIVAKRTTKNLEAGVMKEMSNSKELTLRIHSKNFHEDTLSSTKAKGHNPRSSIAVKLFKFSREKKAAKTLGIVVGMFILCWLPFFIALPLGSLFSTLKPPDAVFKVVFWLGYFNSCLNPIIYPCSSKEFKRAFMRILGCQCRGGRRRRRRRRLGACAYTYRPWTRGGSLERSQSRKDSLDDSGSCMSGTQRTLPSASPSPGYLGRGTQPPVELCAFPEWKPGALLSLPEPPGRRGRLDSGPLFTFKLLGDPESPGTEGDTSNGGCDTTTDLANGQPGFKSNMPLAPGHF

[21] = target: panel of human cytochrome P450s, receptors, and ion channels (Rattus norvegicus, UniProt P43140); settings: assayed at 10 μM
[22] = system: panel of human cytochrome P450s, receptors, and ion channels

CCC(Oc1ccc(Cl)c(Cl)c1Cl)C(=O)NCc1ccc(F)cc1 (centres unmarked) [MBX-4532]
IC50 [1]: 1000 nM
EC50 [2]: 1700 nM
Nicotinic Acetylcholine α1, Bungarotoxin [3]: −17
Adrenergic β2 [4]: 14
Muscarinic M2 [5]: 23
Adrenergic β1 [6]: 2
Adrenergic α2A [7]: 23
Dopamine D2S [8]: 11
Muscarinic M3 [9]: 8
Cannabinoid CB1 [10]: 16
Dopamine D1 [11]: 0
Transporter, Norepinephrine (NET) [12]: 61
Adenosine A2A [13]: 10
Adenosine A1 [14]: 15
Histamine H1 [15]: 23
Opiate μ (OP3, MOP) [16]: 26
Prostanoid EP4 [17]: −6
Serotonin (5-Hydroxytryptamine) 5-HT2B [18]: 59
Sigma σ1 [19]: 70
Adrenergic α1B [20]: 6
Adrenergic α1A [21]: 12
Calcium Channel L-Type, Dihydropyridine ([22]; assayed at 10 μM): 56
GABAA, Flunitrazepam, Central ([22]; assayed at 10 μM): −1
GABAA, Muscimol, Central ([22]; assayed at 10 μM): 2
Glutamate, NMDA, Phencyclidine ([22]; assayed at 10 μM): 29
Imidazoline I2, Central ([22]; assayed at 10 μM): 27
Nicotinic Acetylcholine αβ4 ([22]; assayed at 10 μM): 7
Phorbol Ester ([22]; assayed at 10 μM): 5
Potassium Channel [KATP] ([22]; assayed at 10 μM): 0
Rolipram ([22]; assayed at 10 μM): 23
Sodium Channel, Site 2 ([22]; assayed at 10 μM): 39
specificity vs mammalian receptors and enzymes, including hERG ([22]; assessment in text): not specific enough
